Measured values reported in patent US8809298B2, “Methods, compositions, unit dosage forms, and kits testing for pharmacologic stress testing with reduced side effects” (Adenobio N.V., priority 2006, dated 2014).
Where “and” joins values, the source holds several entries; their conditions need not be identical. Equal values may be shown once.

What was measured:
[1] = test system: patients suffering from ischemic heart disease; test: Transthoracic doppler echocardiography (TTDE): blood flow velocity in the left anterior descending coronary artery (LAD); assay type: in vivo, human; details: for Mean velocity ADE Max / Peak velocity ADE Max: adenosine alone 140 μg/kg/min IV, under stress conditions; for Mean velocity ADE Min / Peak velocity ADE Min: at rest (basal conditions) before adenosine 140 μg/kg/min; for MV-DIP Min / PV-DIP Min: at rest, dipyridamole alone arm
Experimental: In the combined administration, each of the two agents was administered at a dosage lower than its clinically preferred dosage when used as a single agent for myocardial perfusion imaging. Effects were measured using noninvasive transthoracic doppler echocardiography (TTDE).
The protocol was designed as follows.
Forty (40) consecutive patients suffering from ischemic heart disease were enrolled. Each patient served as their own control.
[…] These total doses are between about 4-6% of the lowest single-agent total dose of dipyridamole (i.e., 0.56 mg/kg, infused over a total of 4 minutes).
This dose is half the standard single-agent dosage rate of 140 μg/kg/min.

[2] = test system: coronary patients; test: Phase II SPECT imaging study: stress scores, 17-segment model; assay type: in vivo, human; set-up: key: sum of abnormal segment scores, each 0 = normal to 4 = no uptake; details: adenosine alone 140 μg/kg/min; Series I, individual patients 1-10; listed as Adenoscan
Experimental: The study, which is ongoing, is a mono-center, single-blind, 2-arm, cross-over trial.
Only those patients in whom an ischemic zone was detected were declared eligible for the second test, and were enrolled in the study if other inclusion criteria were satisfied.
SPECT images were acquired as per the standard approach performed the preceding week.
Randomization of SPECT images, and their analysis by two blinded readers, took place every 10 patients. Anonymous and randomized images were assessed using the standard 17-segment model and the semi-quantitative visual score method on a 5-point scale (from 0 to 4).
The “stress score” is the image of ischemia in one or more of the 17 cardiac segments, as scored from 0 to 4 by the blinded reader using the following scale: normal perfusion=0, mild reduction in counts=1, moderate reduction in counts=2, severe reduction=3, absence of uptake=4). Normally, a zone of ischemia is certain when a score ≧4 is noted. A stress score sums the scores of all abnormal segments.
“Stress score A” is the image score difference between stress conditions between adenosine alone and rest conditions. […] “Delta score” is the difference between “Stress score A” and “Stress score B.” It must not be >2 […]

[3] = test system: coronary patients; test: Safety of the procedure in the Phase II SPECT study: adverse events, visual scale, ST changes on EKG; assay type: in vivo, human
Experimental: Given the similar adverse effect profile, the 40 μg/kg dipyridamole dose is currently preferred, since it tends to show greater efficacy.
Table 13 gives adverse event severity cumulated scores, evaluated on a visual scale (going from 0 to 10), for the first 27 patients.
At this point in time, no difference in the occurrence of A2 receptor-related side effects, or severity of symptoms, has become clearly apparent as between the combination stressor and Adenoscan. In contrast, the reduction in the occurrence (−43%) and severity (−69%) of chest pain (an A1 receptor-related adverse effect) has already become manifest in the first 27 patients. […] The difference in ST-variation for each patient alone is not significant, but the total difference has achieved significance, with a clear trend in favor of the combination. In the table below (Table 14) ST-changes/baseline are expressed in millimeters.

[4] = test system: patients suffering from ischemic heart disease; test: Patient tolerance in Example 1: adverse events, VAS severity, EKG, vital signs; details: for Mean global visual analogue scale (VAS) score for the three main adverse events: total score of 30, ADE 140 μg/kg/min, SC adenosine 70 μg/kg/min
Source text: (§1) Primary efficacy end-points were peak and mean diastolic flow velocities (measured as reflecting coronary blood flow values). The secondary end-point was patient tolerance to the procedure.
(§2) VAS scores provide a measure of patient self-assessment of pain intensity/discomfort.

[5] = cited from earlier work
[6] = test system: patients suffering from ischemic heart disease; details: human, in vivo, iv
Source text: as §1, §2

[7] = mean of 5 patients (DIP4 group)
[8] = mean of 5 patients (DIP6 group)
[9] = mean of 30 patients (DIP5 group)
[10] = at rest before adenosine infusion, individual patients (second control experiment)
[11] = at rest before first adenosine infusion, individual patients, listed as ADE1
[12] = at rest before first adenosine infusion, mean of 5 patients
[13] = at rest before second adenosine infusion, individual patients, listed as ADE2
[14] = at rest before second adenosine infusion, mean of 5 patients
[15] = first adenosine infusion 140 μg/kg/min, stress, mean of 5 patients
[16] = first vs second adenosine infusion 140 μg/kg/min, 5 patients
[17] = second adenosine infusion 140 μg/kg/min after 5 minute stabilization, stress, individual patients, listed as ADE2
[18] = second adenosine infusion 140 μg/kg/min, stress, mean of 5 patients
[19] = three minute adenosine infusion 140 μg/kg/min, stress, individual patients (second control experiment)
[20] = Adenoscan alone 140 μg/kg/min, n=27
[21] = visual scale 0 to 10, cumulated over first 27 patients
[22] = adenosine alone 140 μg/kg/min, 40 patients
[23] = dipyridamole alone, bolus 28 μg/kg, individual patient
[24] = dipyridamole alone, bolus 35 μg/kg, individual patients
[25] = dipyridamole alone, bolus 40 μg/kg, individual patients

Nc1ncnc2c1ncn2[C@@H]1O[C@H](CO)[C@@H](O)[C@H]1O [ADE, adenosine]
Differences in velocity measurements between first and second adenosine infusions ([1]; 140 μg/kg/min twice, 5 patients, P>0.05): No statistically significant differences
Mean velocity ADE Max ([1]; (DIP5 group)): 61.4 cm/s
Mean velocity ADE Max ([1]; cumulated, all 40 patients): 63.6 cm/s
Peak velocity ADE Max ([1]; cumulated, all 40 patients): 85.3 cm/sec
Mean velocity ADE Max [1, 7]: 60.4 cm/s
Peak velocity ADE Max [1, 7]: 80 cm/sec
Mean velocity ADE Max [1, 8]: 80.2 cm/s
Peak velocity ADE Max [1, 8]: 107 cm/sec
Peak velocity ADE Max [1, 9]: 82.6 cm/sec
Mean velocity ADE Min ([1]; cumulated, all 40 patients): 23.7 cm/s
Peak velocity ADE Min ([1]; cumulated, all 40 patients): 31.2 cm/sec
Mean velocity ADE Min [1, 7]: 22.2 cm/s
Peak velocity ADE Min [1, 7]: 28 cm/sec
Mean velocity ADE Min [1, 8]: 28.2 cm/s
Peak velocity ADE Min [1, 8]: 37.6 cm/sec
Mean velocity ADE Min [1, 9]: 23.1 cm/s
Peak velocity ADE Min [1, 9]: 30.6 cm/sec
MV-ADE Min [1, 10]: 21 cm/sec and 23 cm/sec (2×) and 25 cm/sec and 20 cm/sec
PV-ADE Min [1, 10]: 25 cm/sec and 33 cm/sec (2×) and 27 cm/sec and 32 cm/sec
MV-ADE1 Min [1, 11]: 25 cm/s and 17 cm/s and 22 cm/s and 23 cm/s and 20 cm/s
PV-ADE1 Min [1, 11]: 34 cm/sec and 23 cm/sec and 30 cm/sec (2×) and 28 cm/sec
MV-ADE1 Min, Mean [1, 12]: 21.4 cm/s
PV-ADE1 Min, Mean [1, 12]: 29 cm/sec
MV-ADE2 Min [1, 13]: 23 cm/s and 16 cm/s and 22 cm/s and 21 cm/s and 20 cm/s
PV-ADE2 Min [1, 13]: 31 cm/sec and 22 cm/sec and 29 cm/sec and 26 cm/sec and 25 cm/sec
MV-ADE2 Min, Mean [1, 14]: 20.4 cm/s
PV-ADE2 Min, Mean [1, 14]: 26.6 cm/sec
PV-ADE1 Max ([1]; first adenosine infusion 140 μg/kg/min, stress, individual patients (first control experiment), listed as ADE1): 68 cm/sec and 65 cm/sec and 102 cm/sec and 73 cm/sec and 70 cm/sec
MV-ADE1 Max ([1]; first adenosine infusion 140 μg/kg/min, stress, individual patients, listed as ADE1): 49 cm/s and 48 cm/s and 75 cm/s and 53 cm/s and 50 cm/s
MV-ADE1 Max, Mean [1, 15]: 55 cm/s
PV-ADE1 Max, Mean [1, 15]: 75.6 cm/sec
Max velocity differential MV (ADE1 − ADE2) [1, 16]: (ADE2) = 2.4 cm/sec
Max velocity differential PV (ADE1 − ADE2) [1, 16]: (ADE2) = 4.8 cm/sec
MV-ADE2 Max [1, 17]: 45 cm/sec and 48 cm/sec (2×) and 75 cm/sec and 47 cm/sec
PV-ADE2 Max [1, 17]: 60 cm/sec and 66 cm/sec and 103 cm/sec and 63 cm/sec and 62 cm/sec
MV-ADE2 Max, Mean [1, 18]: 52.6 cm/s
PV-ADE2 Max, Mean [1, 18]: 70.8 cm/sec
MV-ADE Max [1, 19]: 71 cm/s and 67 cm/s and 86 cm/s and 64 cm/s and 61 cm/s
PV-ADE Max [1, 19]: 88 cm/sec and 92 cm/sec and 112 cm/sec and 84 cm/sec (2×)
Stress score A (Adenoscan) [2]: 5 (5×) and 4 (2×) and 14 and 13 and 7
Chest pain: # patients reporting event, ADE [3, 20]: 14
Dyspnea: # patients reporting event, ADE [3, 20]: 11
Flushing: # patients reporting event, ADE [3, 20]: 14
ST-changes/baseline, Adenosine 140 μg/kg/mn ([3]; EKG, individual patients with ST variations (6 of 27)): 0.5 millimeters and 1 millimeters (3×) and 0.8 millimeters and 1.2 millimeters
ST-changes/baseline, Adenosine 140 μg/kg/mn, Total ([3]; EKG, total of 6 patients): 5.5 millimeters
Chest pain: adverse event severity cumulated score [3, 21]: 60
Dyspnea: adverse event severity cumulated score [3, 21]: 40
Flushing: adverse event severity cumulated score [3, 21]: 43.5
Mean global visual analogue scale (VAS) score for the three main adverse events ([4]; Group DIP4 (dipyridamole 35 μg/kg in SC), n=5): 5.4
Mean global visual analogue scale (VAS) score for the three main adverse events ([4]; Group DIP5 (dipyridamole 28 μg/kg in SC), n=30): 5.95
Mean global visual analogue scale (VAS) score for the three main adverse events ([4]; Group DIP6 (dipyridamole 23 μg/kg in SC), n=5): 8.2
Symptoms under ADE ([4]; adenosine 140 μg/kg/min, individual patients (second control experiment)): None (2×) and Dyspnea and Flushing (2×)
Symptoms under ADE: score ([4]; adenosine 140 μg/kg/min, score out of 10, individual patients): 5/10 and 8/10 and 6/10
Chest pain: # patients reporting events, ADE [4, 22]: 9
Chest pain: frequency, ADE [4, 22]: 22.5%
Dyspnea: # patients reporting events, ADE [4, 22]: 20
Dyspnea: frequency, ADE [4, 22]: 50%
Flushing: # patients reporting events, ADE [4, 22]: 21
Flushing: frequency, ADE [4, 22]: 52.5%

OCCN(CCO)c1nc(N2CCCCC2)c2nc(N(CCO)CCO)nc(N3CCCCC3)c2n1 [DIP, dipyridamole]
Stability in solvents ([5]; pH>4, long term): unstable in the long term
Solubility in saline ([5]; saline): poorly soluble
MV-DIP Min ([1]; 28 μg/kg, individual patient): 19 cm/s
PV-DIP Min ([1]; 28 μg/kg, individual patient): 23 cm/sec
MV-DIP Min ([1]; 35 μg/kg, individual patients): 18 cm/s and 22 cm/s
PV-DIP Min ([1]; 35 μg/kg, individual patients): 21 cm/sec and 30 cm/sec
MV-DIP Min ([1]; 40 μg/kg, individual patients): 23 cm/s and 24 cm/s
PV-DIP Min ([1]; 40 μg/kg, individual patients): 33 cm/sec and 34 cm/sec
Effect on peak and mean diastolic velocities ([1]; dipyridamole alone, IV bolus 28 to 40 μg/kg, 5 patients): did not modify
MV-DIP Max [1, 23]: 21 cm/s
PV-DIP Max [1, 23]: 26 cm/sec
MV-DIP Max [1, 24]: 20 cm/s and 28 cm/s
PV-DIP Max [1, 24]: 23 cm/sec and 40 cm/sec
MV-DIP Max [1, 25]: 25 cm/s and 29 cm/s
PV-DIP Max [1, 25]: 35 cm/sec and 40 cm/sec
Symptoms during a follow-up of 10 minutes [6]: No symptoms
